We go through 23 compounds from patent US20250197372A1 (priority 2020, published 2025).

Experiment [1] deals with recombinant human GAA (acid alpha-glucosidase) (Homo sapiens, UniProt P10253). The experiment is described as follows: Acid alpha-glucosidase (GAA) assay (4-methylumbelliferyl-alpha-D-pyranoside substrate, fluorescence). The format is biochemical. In outline: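 Recombinant human enzyme preincubated 60 min at 37 °C with compound dilutions, then 4-methylumbelliferyl-alpha-D-pyranoside substrate added for 20 min at 37 °C. Stopped with glycine/NaOH pH 10; methylumbelliferone fluorescence (ex 365, em 440 nm) versus untreated enzyme; IC50 by 4-PL fit.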

Experiment [2] has as its target T1, recombinant human GBA (beta-glucocerebrosidase) (Homo sapiens, UniProt P04062).
T1 sequence (P04062 40-536): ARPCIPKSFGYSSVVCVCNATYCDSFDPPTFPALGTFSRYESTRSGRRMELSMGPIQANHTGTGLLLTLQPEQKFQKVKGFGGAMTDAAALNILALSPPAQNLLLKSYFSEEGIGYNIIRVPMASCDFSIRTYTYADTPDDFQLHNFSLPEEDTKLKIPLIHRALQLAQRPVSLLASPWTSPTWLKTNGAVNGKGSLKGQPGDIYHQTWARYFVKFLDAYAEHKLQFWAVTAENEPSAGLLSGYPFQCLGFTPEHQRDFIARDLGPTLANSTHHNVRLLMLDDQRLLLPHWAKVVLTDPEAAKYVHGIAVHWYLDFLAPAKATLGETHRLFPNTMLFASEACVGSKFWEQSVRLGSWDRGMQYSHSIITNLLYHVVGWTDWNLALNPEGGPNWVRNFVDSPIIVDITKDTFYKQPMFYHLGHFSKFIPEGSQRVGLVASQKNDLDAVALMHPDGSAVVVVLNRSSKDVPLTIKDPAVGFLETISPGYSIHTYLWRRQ
The experiment is described as follows: Beta-glucocerebrosidase (GBA, glucosylceramidase) assay (4-methylumbelliferyl-beta-D-pyranoside substrate, fluorescence). The class given is biochemical. In outline: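 Recombinant human GBA preincubated with compound dilutions 60 min at 37 °C, then 4-methylumbelliferyl-beta-D-pyranoside added for 60 min at 37 °C. Stopped at pH 10 (glycine/NaOH); fluorescence ex 365/em 440 nm. IC50 from 4-PL fit of inhibition relative to untreated enzyme.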

Molecules are shown by their SMILES.

With `CN(C)Cc1ccc(NCCCCCCN2C[C@H](O)[C@@H](O)[C@H](O)[C@H]2CO)c(F)c1` [Compound 1236, (2R,3R,4R,5S)-1-[6-({4-[(dimethylamino)methyl]-2-fluorophenyl}amino)hexyl]-2-(hydroxymethyl)piperidine-3,4,5-triol], the half-maximal inhibitory concentration (IC50) in experiment [1] stood at 556 nM; in experiment [2] it was 4630 nM.

Regarding `Nc1ccc(NCCc2ccccc2CCN2C[C@H](O)[C@@H](O)[C@H](O)[C@H]2CO)c([N+](=O)[O-])c1Cl` [Compound 1239, (2R,3R,4R,5S)-1-[2-(2-{2-[(4-amino-3-chloro-2-nitrophenyl)amino]ethyl}phenyl)ethyl]-2-(hydroxymethyl)piperidine-3,4,5-triol], the figures for the half-maximal inhibitory concentration (IC50) in experiment [1] and in experiment [2] were 1240 nM and 114 nM, respectively.

Take `[N-]=[N+]=Nc1ccc(NCCc2cccc(CCN3C[C@H](O)[C@@H](O)[C@H](O)[C@H]3CO)c2)c([N+](=O)[O-])c1` [Compound 1240, (2R,3R,4R,5S)-1-[2-(3-{2-[(4-azido-2-nitrophenyl)amino]ethyl}phenyl)ethyl]-2-(hydroxymethyl)piperidine-3,4,5-triol]: the IC50 in experiment [1] was 12800 nM; in experiment [2], 496 nM.

With `CN(C)Cc1ccc(NCCCCCCN2C[C@H](O)[C@@H](O)[C@H](O)[C@H]2CO)c(C(=O)O)c1` [Compound 1245, 5-[(dimethylamino)methyl]-2-({6-[(2R,3R,4R,5S)-3,4,5-trihydroxy-2-(hydroxymethyl)piperidin-1-yl]hexyl}amino)benzoic acid], the values for the IC50 in experiment [1] and in experiment [2] were 392 nM and 56000 nM, respectively.

For `Cc1nc(=O)c2cc(-c3ncccn3)ccc2n1CCCCCCN1C[C@H](O)[C@@H](O)[C@H](O)[C@H]1CO` [Compound 1246, 2-methyl-6-(pyrimidin-2-yl)-1-{6-[(2R,3R,4R,5S)-3,4,5-trihydroxy-2-(hydroxymethyl)piperidin-1-yl]hexyl}-1,4-dihydroquinazolin-4-one], the IC50 in experiment [1] came to 46 nM; in experiment [2], 21600 nM.

As for `CS(C)=NS(=O)(=O)c1cc(-c2ncccn2)ccc1NCCCCCCN1C[C@H](O)[C@@H](O)[C@H](O)[C@H]1CO` [Compound 1247, N-(dimethyl-2-sulfanylidene)-5-(pyrimidin-2-yl)-2-({6-[(2R,3R,4R,5S)-3,4,5-trihydroxy-2-(hydroxymethyl)piperidin-1-yl]hexyl}amino)benzene-1-sulfonamide], the IC50 in experiment [1] was found to be 53 nM; in experiment [2] it was 11800 nM.

For `[N-]=[N+]=Nc1ccc(NCCc2ccccc2CCN2C[C@H](O)[C@@H](O)[C@H](O)[C@H]2CO)c([N+](=O)[O-])c1` [Compound 1249], the half-inhibitory concentration (IC50) in experiment [1] was found to be 1920 nM; in experiment [2], 320 nM.

Take `N#Cc1ccc(F)cc1NCCCCCCN1C[C@H](O)[C@@H](O)[C@H](O)[C@H]1CO` [Compound 1251, 4-fluoro-2-({6-[(2R,3R,4R,5S)-3,4,5-trihydroxy-2-(hydroxymethyl)piperidin-1-yl]hexyl}amino)benzonitrile]: the values for the half-inhibitory concentration (IC50) in experiment [1] and in experiment [2] were 41 nM and 1410 nM, respectively.

With `[N-]=[N+]=Nc1ccc(N2CC(OCCN3C[C@H](O)[C@@H](O)[C@H](O)[C@H]3CO)C2)c([N+](=O)[O-])c1` [Compound 1252, (2R,3R,4R,5S)-1-(2-{[1-(4-azido-2-nitrophenyl)azetidin-3-yl]oxy}ethyl)-2-(hydroxymethyl)piperidine-3,4,5-triol], the IC50 came to 141 nM in experiment [1] and 8670 nM in experiment [2].

Turning to `Nc1ccc(NCCn2cc(CCN3C[C@H](O)[C@@H](O)[C@H](O)[C@H]3CO)nn2)c([N+](=O)[O-])c1Cl` [Compound 1253, (2R,3R,4R,5S)-1-[2-(1-{2-[(4-amino-3-chloro-2-nitrophenyl)amino]ethyl}-1H-1,2,3-triazol-4-yl)ethyl]-2-(hydroxymethyl)piperidine-3,4,5-triol], the 50% inhibitory concentration (IC50) in experiment [1] is 664 nM; in experiment [2] it was over 100000 nM.

`[N-]=[N+]=Nc1ccc(N2CCN(CCN3C[C@H](O)[C@@H](O)[C@H](O)[C@H]3CO)CC2)c([N+](=O)[O-])c1` [Compound 1254, (2R,3R,4R,5S)-1-{2-[4-(4-azido-2-nitrophenyl)piperazin-1-yl]ethyl}-2-(hydroxymethyl)piperidine-3,4,5-triol]: the concentration for half-maximal inhibition (IC50) in experiment [1] and in experiment [2] was over 100000 nM in each case.

As for `[N-]=[N+]=Nc1ccc(NCCOCCN2C[C@H](O)[C@@H](O)[C@H](O)[C@H]2CO)c([N+](=O)[O-])c1` [Compound 1255, (2R,3R,4R,5S)-1-(2-{2-[(4-azido-2-nitrophenyl)amino]ethoxy}ethyl)-2-(hydroxymethyl)piperidine-3,4,5-triol], the half-inhibitory concentration (IC50) was determined as 228 nM in experiment [1] and 3080 nM in experiment [2].

On to `N#Cc1cc(-c2ncccn2)ccc1NCCCCCCN1C[C@H](O)[C@@H](O)[C@H](O)[C@H]1CO` [Compound 1256, 5-(pyrimidin-2-yl)-2-({6-[(2R,3R,4R,5S)-3,4,5-trihydroxy-2-(hydroxymethyl)piperidin-1-yl]hexyl}amino)benzonitrile], for which the half-maximal inhibitory concentration (IC50) in experiment [1] amounted to 33 nM; in experiment [2], 1230 nM.

For the compound `CN(C)Cc1ccc(NCCCCCCN2C[C@H](O)[C@@H](O)[C@H](O)[C@H]2CO)c(C#N)c1` [Compound 1257, 5-[(dimethylamino)methyl]-2-({6-[(2R,3R,4R,5S)-3,4,5-trihydroxy-2-(hydroxymethyl)piperidin-1-yl]hexyl}amino)benzonitrile], the figures for the IC50 in experiment [1] and in experiment [2] were 73 nM and 6530 nM, respectively.

`OC[C@@H]1[C@@H](O)[C@H](O)[C@@H](O)CN1CCCCCCNc1ccc(-c2ncccn2)cc1C(F)(F)F` [Compound 1258, (2R,3R,4R,5S)-2-(hydroxymethyl)-1-(6-{[4-(pyrimidin-2-yl)-2-(trifluoromethyl)phenyl]amino}hexyl)piperidine-3,4,5-triol]: the IC50 in experiment [1] was found to be 32 nM; in experiment [2], 1350 nM.

As to `CN(C)Cc1ccc(NCCCCCCN2C[C@H](O)[C@@H](O)[C@H](O)[C@H]2CO)c(C(F)(F)F)c1` [Compound 1259, (2R,3R,4R,5S)-1-[6-({4-[(dimethylamino)methyl]-2-(trifluoromethyl)phenyl}amino)hexyl]-2-(hydroxymethyl)piperidine-3,4,5-triol], the half-maximal inhibitory concentration (IC50) was found to be 238 nM in experiment [1] and 1350 nM in experiment [2].

In the case of `NS(=O)(=O)c1cc(-c2ncccn2)ccc1NCCCCCCN1C[C@H](O)[C@@H](O)[C@H](O)[C@H]1CO` [Compound 1265, 5-(pyrimidin-2-yl)-2-({6-[(2R,3R,4R,5S)-3,4,5-trihydroxy-2-(hydroxymethyl)piperidin-1-yl]hexyl}amino)benzene-1-sulfonamide], the IC50 in experiment [1] worked out at 35 nM; in experiment [2] it was 5080 nM.

Consider `NC(=O)c1cc(-c2ncccn2)ccc1NCCCCCCN1C[C@H](O)[C@@H](O)[C@H](O)[C@H]1CO` [Compound 1266, 5-(pyrimidin-2-yl)-2-({6-[(2R,3R,4R,5S)-3,4,5-trihydroxy-2-(hydroxymethyl)piperidin-1-yl]hexyl}amino)benzamide], for which the IC50 is 103 nM in experiment [1] and 6340 nM in experiment [2].

On to `[N-]=[N+]=Nc1ccc(NCCOC(=O)NCCN2C[C@H](O)[C@@H](O)[C@H](O)[C@H]2CO)c([N+](=O)[O-])c1` [Compound 1268, 2-[(4-azido-2-nitrophenyl)amino]ethyl N-{2-[(2R,3R,4R,5S)-3,4,5-trihydroxy-2-(hydroxymethyl)piperidin-1-yl]ethyl}carbamate], for which the concentration for half-maximal inhibition (IC50) was 617 nM in experiment [1] and 1520 nM in experiment [2].

In the case of `[N-]=[N+]=Nc1ccc(NCCC(O)C(O)CCN2C[C@H](O)[C@@H](O)[C@H](O)[C@H]2CO)c([N+](=O)[O-])c1` (stereo partly drawn) [Compound 1270, (2R,3R,4R,5S)-1-{6-[(4-azido-2-nitrophenyl)amino]-3,4-dihydroxy-hexyl}-2-(hydroxymethyl)piperidine-3,4,5-triol], the IC50 stood at 190 nM in experiment [1] and 81 nM in experiment [2].

Consider `[N-]=[N+]=Nc1ccc(NCCN2CC(OCCN3C[C@H](O)[C@@H](O)[C@H](O)[C@H]3CO)C2)c([N+](=O)[O-])c1` [Compound 1271, (2R,3R,4R,5S)-1-{2-[(1-{2-[(4-azido-2-nitrophenyl)amino]ethyl}azetidin-3-yl)oxy]ethyl}-2-(hydroxymethyl)piperidine-3,4,5-triol], for which the IC50 was found to be 1360 nM in experiment [1] and 1900 nM in experiment [2].

For `[N-]=[N+]=Nc1ccc(NCCn2cc(CCN3C[C@H](O)[C@@H](O)[C@H](O)[C@H]3CO)nn2)c([N+](=O)[O-])c1` [Compound 1272, (2R,3R,4R,5S)-1-[2-(1-{2-[(4-azido-2-nitrophenyl)amino]ethyl}-1H-1,2,3-triazol-4-yl)ethyl]-2-(hydroxymethyl)piperidine-3,4,5-triol], the values for the IC50 in experiment [1] and in experiment [2] were 800 nM and 4100 nM, respectively.

For the compound `[N-]=[N+]=Nc1ccc(NCCN2CCN(CCN3C[C@H](O)[C@@H](O)[C@H](O)[C@H]3CO)CC2)c([N+](=O)[O-])c1` [Compound 1273, (2R,3R,4R,5S)-1-[2-(4-{2-[(4-azido-2-nitrophenyl)amino]ethyl}piperazin-1-yl)ethyl]-2-(hydroxymethyl)piperidine-3,4,5-triol], the figures for the IC50 in experiment [1] and in experiment [2] were 15600 nM and 2980 nM, respectively.

One may read the IC50 as the concentration that gives 50% inhibition.
